# Experimental data from patent publication US5135943A, “1H-imidazole derivative compounds and pharmaceutical compositions containing the same” (priority 1984, dated 1992).
# Read-outs that look alike come from different tables or passages of the source.
# Tests used:
# Swiss mice [1] = settings: mouse, in vivo
# From the text: (§3) Such signs included convulsions and Straub tail(vertical righting of the tail).
# in vivo = settings: mouse, ip
# From the text: as §3
# C. albicans 32 = test: MIC, comparative in vitro testing against Martin compounds; type: cell-based; settings: Candida albicans, 32, YNB medium, read-out: MIC
# Experimental: (§1) Minimum Inhibitory Concentrations (MICS) of Sertaconazole were also measured in comparison to four of the compounds described in the Martin Patent, including a compound, referred to herein as Martin Compound 1, which has the same structure as Sertaconazole, expect that the sulfur in the benzothiophene ring is replaced by an oxygen.
# (§2) The results of comparative in vitro testing of Sertaconazole and these four Martin compounds are shown in the following Table II against 16 microorganisms. The reading time is the time interval from the time of inoculation to the time of measurement.
# C. stellatoidea 36232 = test: as above; type: cell-based
# Experimental: as §1, §2
# C. albicans 14 = test: as above; type: cell-based; settings: Casitone medium
# Experimental: as §1, §2
# C. albicans 31 = test: as above; type: cell-based; settings: Candida albicans, 31, YNB medium, read-out: MIC
# Experimental: as §1, §2
# C. pseudotropicalis 21 = test: as above; type: cell-based; settings: Kluyveromyces marxianus, 21, Sabouraud medium, read-out: MIC
# Experimental: as §1, §2
# C. krusei 24 = test: as above; type: cell-based; settings: read-out: MIC
# Experimental: as §1, §2
# C. albicans ATCC E-10231 = test: as above; type: cell-based; settings: Candida albicans, ATCCE10231, Casitone medium, read-out: MIC
# Experimental: as §1, §2
# C. parapsilosis 19 = test: as above; type: cell-based
# Experimental: as §1, §2
# C. guillermondii = test: as above; type: cell-based; settings: read-out: MIC
# Experimental: as §1, §2
# C. tropicalis 25 = test: as above; type: cell-based; settings: YNB medium
# Experimental: as §1, §2
# C. albicans 15 = test: as above; type: cell-based; settings: Casitone medium
# Experimental: as §1, §2
# 16 microorganisms = test: Geometric mean of all MIC measurements, comparative in vitro testing; type: cell-based; settings: read-out: Geometric means of MIC
# Experimental: as §1, §2
# Swiss mice [2] = test: Acute toxicity in Swiss mice i.p.; settings: for LD0: Swiss mice i.p.
# From the text: as §3
smiles,measurement,setting,value
Clc1ccc(C(Cn2ccnc2)OCc2csc3c(Cl)cccc23)c(Cl)c1 (centres unmarked) [Sertaconazole nitrate],LD0,Swiss mice [1]; ip,2000 mg/kg
same,LD50,Swiss mice [1]; ip,8000 mg/kg
"Clc1ccc(C(Cn2ccnc2)OCc2cc3cc(Cl)ccc3o2)c(Cl)c1 (centres unmarked) [Martin compound 3, reference compound]",LD50,in vivo,640 mg/kg
same,mice with generalized pulmonary edema and congestion,Swiss mice [1],80%
same,signs of intoxication in the central nervous system (convulsions and Straub tail),Swiss mice [1],evident signs of intoxication in the central nervous system
same,LD0,Swiss mice [1]; ip,423 mg/kg
same,MIC,"C. albicans 32; reading time 48 h, SZ vs M3",4 µg/mL
same,MIC,"C. stellatoidea 36232; Candida albicans, 36232, 48 h, Casitone medium, reading time 48 h, SZ vs M3",0.125 µg/mL
same,MIC,"C. stellatoidea 36232; Candida albicans, 36232, 48 h, Sabouraud medium, reading time 48 h, SZ vs M3",0.5 µg/mL
same,MIC,"C. stellatoidea 36232; Candida albicans, 36232, 48 h, YNB medium, reading time 48 h, SZ vs M3",4 µg/mL
same,MIC,"C. albicans 14; Candida albicans, 14, 48 h, reading time 48 h, SZ vs M3",0.5 µg/mL
same,MIC,"C. albicans 31; reading time 48 h, SZ vs M3",4 µg/mL
same,MIC,"C. pseudotropicalis 21; reading time 48 h, SZ vs M3",0.03 µg/mL
same,MIC,"C. krusei 24; Pichia kudriavzevii, 24, 48 h, Casitone medium, reading time 48 h, SZ vs M3",0.125 µg/mL
same,MIC,"C. krusei 24; Pichia kudriavzevii, 24, 48 h, YNB medium, reading time 48 h, SZ vs M3",0.25 µg/mL
same,MIC,"C. albicans ATCC E-10231; reading time 48 h, SZ vs M3",0.5 µg/mL
same,MIC,"C. parapsilosis 19; 19, 48 h, Sabouraud medium, reading time 48 h, SZ vs M3",0.5 µg/mL
same,MIC,"C. parapsilosis 19; 19, 48 h, YNB medium, reading time 48 h, SZ vs M3",1 µg/mL
same,MIC,"C. guillermondii; 48 h, Casitone medium, reading time 48 h, SZ vs M3",0.25 µg/mL
same,MIC,"C. guillermondii; 48 h, YNB medium, reading time 48 h, SZ vs M3",0.25 µg/mL
same,MIC,"C. tropicalis 25; Candida tropicalis, 25, 48 h, reading time 48 h, SZ vs M3",8 µg/mL
same,MIC,"C. albicans 15; Candida albicans, 15, 48 h, reading time 48 h, SZ vs M3",0.06 µg/mL
same,MIC,"16 microorganisms; 48 h, SZ vs M3, reading time 48 h",0.497 µg/mL
"Clc1ccc(C(Cn2ccnc2)OCc2coc3c(Cl)cccc23)c(Cl)c1 (centres unmarked) [Martin compound 1, reference compound]",LD0,Swiss mice [2],285 mg/kg
same,signs of intoxication in the central nervous system (convulsions and Straub tail),Swiss mice [2]; mice,evident signs of intoxication in the central nervous system
same,LD50,in vivo,518 mg/kg
same,MIC,"C. albicans 32; reading time 60 h, SZ vs M1",8 µg/mL
same,MIC,"C. stellatoidea 36232; Candida albicans, 36232, 60 h, Casitone medium, reading time 60 h, SZ vs M1",0.5 µg/mL
same,MIC,"C. stellatoidea 36232; Candida albicans, 36232, 60 h, Sabouraud medium, reading time 60 h, SZ vs M1",1 µg/mL
same,MIC,"C. stellatoidea 36232; Candida albicans, 36232, 60 h, YNB medium, reading time 60 h, SZ vs M1",4 µg/mL
same,MIC,"C. albicans 14; Candida albicans, 14, 60 h, reading time 60 h, SZ vs M1",2 µg/mL
same,MIC,"C. albicans 31; reading time 60 h, SZ vs M1",8 µg/mL
same,MIC,"C. pseudotropicalis 21; reading time 60 h, SZ vs M1",0.03 µg/mL
same,MIC,"C. krusei 24; Pichia kudriavzevii, 24, 60 h, Casitone medium, reading time 60 h, SZ vs M1",1 µg/mL
same,MIC,"C. krusei 24; Pichia kudriavzevii, 24, 60 h, YNB medium, reading time 60 h, SZ vs M1",0.25 µg/mL
same,MIC,"C. albicans ATCC E-10231; reading time 60 h, SZ vs M1",2 µg/mL
same,MIC,"C. parapsilosis 19; 19, 60 h, Sabouraud medium, reading time 60 h, SZ vs M1",1 µg/mL
same,MIC,"C. parapsilosis 19; 19, 60 h, YNB medium, reading time 60 h, SZ vs M1",0.5 µg/mL
same,MIC,"C. guillermondii; 60 h, Casitone medium, reading time 60 h, SZ vs M1",0.5 µg/mL
same,MIC,"C. guillermondii; 60 h, YNB medium, reading time 60 h, SZ vs M1",0.5 µg/mL
same,MIC,"C. tropicalis 25; Candida tropicalis, 25, 60 h, reading time 60 h, SZ vs M1",8 µg/mL
same,MIC,"C. albicans 15; Candida albicans, 15, 60 h, reading time 60 h, SZ vs M1",1 µg/mL
same,MIC,"16 microorganisms; 60 h, SZ vs M1, reading time 60 h",1.09 µg/mL
"Clc1ccc(C(Cn2ccnc2)OCc2coc3cc(Cl)ccc23)c(Cl)c1 (centres unmarked) [Martin compound 2, reference compound]",LD0,Swiss mice [2],235 mg/kg
same,LD50,in vivo,640 mg/kg
same,MIC,"C. albicans 32; reading time 48 h, SZ vs M2",4 µg/mL
same,MIC,"C. stellatoidea 36232; Candida albicans, 36232, 48 h, Casitone medium, reading time 48 h, SZ vs M2",0.06 µg/mL
same,MIC,"C. stellatoidea 36232; Candida albicans, 36232, 48 h, Sabouraud medium, reading time 48 h, SZ vs M2",0.5 µg/mL
same,MIC,"C. stellatoidea 36232; Candida albicans, 36232, 48 h, YNB medium, reading time 48 h, SZ vs M2",1 µg/mL
same,MIC,"C. albicans 14; Candida albicans, 14, 48 h, reading time 48 h, SZ vs M2",0.25 µg/mL
same,MIC,"C. albicans 31; reading time 48 h, SZ vs M2",4 µg/mL
same,MIC,"C. pseudotropicalis 21; reading time 48 h, SZ vs M2",0.06 µg/mL
same,MIC,"C. krusei 24; Pichia kudriavzevii, 24, 48 h, Casitone medium, reading time 48 h, SZ vs M2",0.05 µg/mL
same,MIC,"C. krusei 24; Pichia kudriavzevii, 24, 48 h, YNB medium, reading time 48 h, SZ vs M2",0.5 µg/mL
same,MIC,"C. albicans ATCC E-10231; reading time 48 h, SZ vs M2",0.5 µg/mL
same,MIC,"C. parapsilosis 19; 19, 48 h, Sabouraud medium, reading time 48 h, SZ vs M2",1 µg/mL
same,MIC,"C. parapsilosis 19; 19, 48 h, YNB medium, reading time 48 h, SZ vs M2",1 µg/mL
same,MIC,"C. guillermondii; 48 h, Casitone medium, reading time 48 h, SZ vs M2",0.5 µg/mL
same,MIC,"C. guillermondii; 48 h, YNB medium, reading time 48 h, SZ vs M2",0.5 µg/mL
same,MIC,"C. tropicalis 25; Candida tropicalis, 25, 48 h, reading time 48 h, SZ vs M2",8 µg/mL
same,MIC,"C. albicans 15; Candida albicans, 15, 48 h, reading time 48 h, SZ vs M2",0.06 µg/mL
same,MIC,"16 microorganisms; 48 h, SZ vs M2, reading time 48 h",0.565 µg/mL
